Results reported in ChEMBL document CHEMBL1148532, “Role of Tyr(356(7.43)) and Ser(190(4.57)) in antagonist binding in the rat beta1-adrenergic receptor” (J Med Chem, 2006).

Tests used:
[1] = target: Beta-1 adrenergic receptor (Rattus norvegicus, UniProt P18090)
Description: Antagonist activity at rat wild type beta-1 adrenergic receptor expressed in CHO cells

[2] = target: Beta-1 adrenergic receptor (Rattus norvegicus, UniProt P18090, Y356F)
[3] = target: Beta-1 adrenergic receptor (Rattus norvegicus, UniProt P18090, Y356A)
[4] = target: Beta-1 adrenergic receptor (Rattus norvegicus, UniProt P18090, W134A)
Sequence of Beta-1 adrenergic receptor (Rattus norvegicus, UniProt P18090, W134A) (P18090 whole entry W134A): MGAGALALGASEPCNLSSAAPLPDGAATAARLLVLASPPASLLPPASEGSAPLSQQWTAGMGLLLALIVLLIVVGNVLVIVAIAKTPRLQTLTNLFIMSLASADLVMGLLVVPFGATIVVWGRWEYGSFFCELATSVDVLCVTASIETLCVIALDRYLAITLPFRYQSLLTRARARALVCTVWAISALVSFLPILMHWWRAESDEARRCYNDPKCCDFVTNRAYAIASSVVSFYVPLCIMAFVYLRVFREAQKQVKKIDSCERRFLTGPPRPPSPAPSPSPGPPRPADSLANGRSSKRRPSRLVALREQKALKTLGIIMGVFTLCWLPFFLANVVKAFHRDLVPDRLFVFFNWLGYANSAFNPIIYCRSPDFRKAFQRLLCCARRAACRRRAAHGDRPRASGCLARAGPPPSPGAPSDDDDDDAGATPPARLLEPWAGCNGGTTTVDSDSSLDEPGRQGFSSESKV

[5] = target: Beta-1 adrenergic receptor (Rattus norvegicus, UniProt P18090, S190A)
Sequence of Beta-1 adrenergic receptor (Rattus norvegicus, UniProt P18090, S190A) (P18090 whole entry S190A): as the sequence (P18090 whole entry W134A) above, with A134W, S190A counted along it

Sequence of Beta-1 adrenergic receptor (Rattus norvegicus, UniProt P18090) (P18090 whole entry): as the sequence (P18090 whole entry W134A) above, with A134W counted along it
Sequence of Beta-1 adrenergic receptor (Rattus norvegicus, UniProt P18090, Y356F) (P18090 whole entry Y356F): as the sequence (P18090 whole entry W134A) above, with A134W, Y356F counted along it
Sequence of Beta-1 adrenergic receptor (Rattus norvegicus, UniProt P18090, Y356A) (P18090 whole entry Y356A): as the sequence (P18090 whole entry W134A) above, with A134W, Y356A counted along it

Row | Structure (SMILES) | Ki [1] [nM] | Ki [2] [nM] | Ki [3] [nM] | Ki [4] [nM] | Ki [5] [nM] | Kd [1] [nM] | Kd [2] [nM] | Kd [3] [nM] | Kd [4] [nM] | Kd [5] [nM]
1 | CC(C)(C)NCC(O)COc1cccc2[nH]c(C#N)cc12 (stereo not given) [CYANOPINDOLOL] | 0.0501 | 0.0398 | 316 | 0.126 | 0.316 | – | – | – | – | –
2 | CC(C)(C)NCC(O)COc1cccc2[nH]c(C#N)c(I)c12 (stereo not given) | – | – | – | – | – | 0.0631 | 0.0794 | 0.316 | 0.0631 | 0.0631
3 | CCOCCOc1ccc(OC[C@@H](O)CNCCc2ccc(OC)c(OC)c2)cc1 | 50.1 | 100 | 794 | 79.4 | 12600 | – | – | – | – | –

More lines, main results first:

Row | Ki [1] [nM] | Ki [2] [nM] | Ki [3] [nM] | Ki [4] [nM] | Ki [5] [nM] | Structure (SMILES) | Kd [1] [nM] | Kd [2] [nM] | Kd [3] [nM] | Kd [4] [nM] | Kd [5] [nM]
4 | 1.26 | 2 | 10000 | 7.94 | 794 | Cn1cc(C(F)(F)F)nc1-c1ccc(OCC(O)CNCCOc2ccc(O)c(C(N)=O)c2)cc1 (stereo not given) [CGP-20712A] | – | – | – | – | –
5 | 7.94 | 79.4 | 79400 | 63.1 | 100 | N#Cc1cc(OCCOCC2CC2)ccc1OCC(O)CNCCNC(=O)Nc1ccc(O)cc1 (stereo not given) [LK-204545] | – | – | – | – | –
